According to patent publication US20230104936A1, “TRPML MODULATORS” (Casma Therapeutics, Inc., priority 2019, published 2023):

System: TFEB
Experiment: TFEB nuclear translocation assay, HeLa wt cells
Assay type: cell-based
Details: 2 hrs compound treatment, Table 1 does not say HeLa wt or TRPML1 KO
Procedure, shortened: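 TFEB translocation into the nucleus of HeLa wt cells is scored by high-content immunofluorescence after 2 hrs of compound treatment at 37° C, reported as AC50.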

Compound | AC50 (Homo sapiens, HeLa, 2 h) [nM] | AC50 [nM]
Cc1ccc([S+]([O-])c2ccccc2N2CCC(c3ccc(Cl)cc3F)CC2)cc1 (stereo not shown) [Compound A-144, 4-(4-chloro-2-fluorophenyl)-1-(2-(p-tolylsulfinyl)phenyl)piperidine] | ≥ 10000 | 
CC(c1cccc(F)c1N1CCC(COC(C)(C)C)CC1)S(=O)(=O)c1ccc(S(=N)(=O)N(C)C)cc1 (single isomer, unassigned) [Compound A-946, 4-((1-(2-(4-(tert-butoxymethyl)piperidin-1-yl)-3-fluorophenyl)ethyl)sulfonyl)-N,N-dimethylbenzenesulfonimidamide] |  | ≤ 2000
Cc1ccc(CS(=O)(=O)Nc2ccccc2N2CCC3(CC2)COC(C)(C)C3)cc1 [Compound A-711, N-(2-{3,3-dimethyl-2-oxa-8-azaspiro[4.5]decan-8-yl}phenyl)-1-(4-methylphenyl)methanesulfonamide] | ≤ 2000 | 
CC(c1cncc(F)c1N1CCC(F)(F)CC1)S(=O)(=O)c1ccc(S(=O)(=O)N(C)C)cc1 (stereo not shown) [Compound A-986, 4-{1-[4-(4,4-difluoropiperidin-1-yl)-5-fluoropyridin-3-yl]ethanesulfonyl}-N,N-dimethylbenzene-1-sulfonamide] | ≥ 10000 | 
COC(=O)N1CCN(c2ccccc2NS(=O)(=O)c2ccc(S(=O)(=O)N(C)C)cc2)CC1 [Compound A-309, methyl 4-{2-[4-(dimethylsulfamoyl)benzenesulfonamido]phenyl}piperazine-1-carboxylate] | 2010 to 8000 | 
CN(C)S(=O)(=O)c1ccc(S(=O)(=O)Nc2ccccc2N2CCC(C3CCCO3)CC2)cc1 (stereo not shown) [Compound A-419, N1,N1-dimethyl-N4-{2-[4-(oxolan-2-yl)piperidin-1-yl]phenyl}benzene-1,4-disulfonamide] | ≤ 2000 | 
O=S(=O)(Nc1cc(Cl)ccc1N1CCCC2(CCCO2)C1)c1ccc2c(c1)CCC2 (stereo not shown) [Compound A-362, N-(5-chloro-2-{1-oxa-7-azaspiro[4.5]decan-7-yl}phenyl)-2,3-dihydro-1H-indene-5-sulfonamide] | ≤ 2000 | 
COc1ccc(S(=O)(=O)Nc2ccccc2-c2ncc(F)cc2F)cc1 [Compound A-180, N-(2-(3,5-difluoropyridin-2-yl)phenyl)-4-methoxybenzenesulfonamide] | 8010 to 9990 | 
CN(C)S(=O)(=O)c1ccc(S(=O)(=O)Nc2ccccc2N2CCC3(CCCCO3)CC2)cc1 [Compound A-562, N1,N1-dimethyl-N4-(2-{1-oxa-9-azaspiro[5.5]undecan-9-yl}phenyl)benzene-1,4-disulfonamide] | ≤ 2000 | 
Cc1cnc(N2CCC(CN3CCC(F)(F)CC3)CC2)c(C(C)S(=O)(=O)c2ccc(S(=O)(=O)N(C)C)cc2)c1 (single isomer, unassigned) [Compound A-995, 4-((1-(2-(4-((4,4-difluoropiperidin-1-yl)methyl)piperidin-1-yl)-5-methylpyridin-3-yl)ethyl)sulfonyl)-N,N-dimethylbenzenesulfonamide] |  | ≥ 10000
C[C@@H](c1cccc(F)c1N1CCCCC1)S(=O)(=O)c1ccc(S(=N)(=O)N(C)C)cc1 (single isomer, unassigned) [Compound A-929] | ≤ 2000 | 
O=S1(=O)CCC2(CC1)CN(c1ccc(Cl)cc1NS(=O)(=O)c1ccc3c(c1)CCC3)CCO2 [Compound A-317, N-(5-chloro-2-{9,9-dioxo-1-oxa-9λ^6-thia-4-azaspiro[5.5]undecan-4-yl}phenyl)-2,3-dihydro-1H-indene-5-sulfonamide] | 2010 to 8000 | 
COCC1(C)CCN(c2ccccc2NS(=O)(=O)Cc2ccc(S(=O)(=O)COC)cc2)CC1 [Compound A-747, 1-(4-methoxymethanesulfonylphenyl)-N-{2-[4-(methoxymethyl)-4-methylpiperidin-1-yl]phenyl}methanesulfonamide] | ≥ 10000 | 
CN(C)S(=O)(=O)c1ccc(NS(=O)(=O)c2ccccc2N2CCC(c3ccc(Cl)cc3F)CC2)cc1 [Compound A-108, 4-((2-(4-(4-chloro-2-fluorophenyl)piperidin-1-yl)phenyl)sulfonamido)-N,N-dimethylbenzenesulfonamide] | ≤ 2000 | 
C[C@@H](c1cccc(F)c1N1CCC(C(F)(F)F)CC1)S(=O)(=O)c1ccc(S(=N)(=O)N(C)C)cc1 (single isomer, unassigned) [Compound A-935] |  | ≤ 2000
C[C@@H]1CN(CC2(C)CCN(c3c(F)cccc3NS(=O)(=O)c3ccc(S(=O)(=O)N(C)C)cc3)CC2)C[C@H](C)O1 [Compound A-781, N4-[2-(4-{[(2R,6S)-2,6-dimethylmorpholin-4-yl]methyl}-4-methylpiperidin-1-yl)-3-fluorophenyl]-N1,N1-dimethylbenzene-1,4-disulfonamide] | ≤ 2000 | 
COCC1(C)CC2CCC(C1)N2c1ccccc1NS(=O)(=O)c1ccc(S(=O)(=O)N(C)C)cc1 (stereo not shown) [Compound A-734, N4-{2-[3-(methoxymethyl)-3-methyl-8-azabicyclo[3.2.1]octan-8-yl]phenyl}-N1,N1-dimethylbenzene-1,4-disulfonamide] | ≤ 2000 | 

Compound | AC50 (Homo sapiens, HeLa, 2 h) [nM] | AC50 [nM]
COCC1(C)CCN(c2ccccc2NS(=O)(=O)C2=Cc3ccccc3OCC2)CC1 [Compound A-624, N-{2-[4-(methoxymethyl)-4-methylpiperidin-1-yl]phenyl}-2,3-dihydro-1-benzoxepine-4-sulfonamide] | 2010 to 8000 | 
CC(C)(C)C(=O)N1CCN(c2ccccc2NS(=O)(=O)Cc2ccc3ccccc3c2)CC1 [Compound A-566, N-{2-[4-(2,2-dimethylpropanoyl)piperazin-1-yl]phenyl}-1-(naphthalen-2-yl)methanesulfonamide] | 2010 to 8000 | 
C[C@@H]1C[C@@]2(CCN1c1ccccc1NS(=O)(=O)c1ccc(S(=O)(=O)N(C)C)cc1)COC(C)(C)C2 (racemic) [Compound A-799, N1,N1-dimethyl-N4-(2-((5R,7R)-3,3,7-trimethyl-2-oxa-8-azaspiro[4.5]decan-8-yl)phenyl)benzene-1,4-disulfonamide] | ≤ 2000 | 
O=S(=O)(Nc1ccccc1N1CCN(c2ccc(Cl)cc2F)CC1)C1CCOCC1 [Compound A-14, N-{2-[4-(4-chloro-2-fluorophenyl)piperazin-1-yl]phenyl}oxane-4-sulfonamide] | 2010 to 8000 | 
CN(C)S(=O)(=O)c1ccc(S(=O)(=O)Nc2ccccc2N2CCCN(C(=O)C(C)(C)C)CC2)cc1 [Compound A-480, N4-{2-[4-(2,2-dimethylpropanoyl)-1,4-diazepan-1-yl]phenyl}-N1,N1-dimethylbenzene-1,4-disulfonamide] | 2010 to 8000 | 
CC1(C)Cc2cc(S(=O)(=O)Nc3ccccc3N3CCN(C(=O)C(C)(C)C)CC3)ccc2O1 [Compound A-514, N-{2-[4-(2,2-dimethylpropanoyl)piperazin-1-yl]phenyl}-2,2-dimethyl-2,3-dihydro-1-benzofuran-5-sulfonamide] | ≤ 2000 | 
O=S(=O)(Nc1ccccc1N1CCN(c2ccc(F)cc2F)CC1)c1ccc(S(=O)(=O)C(F)(F)F)cc1 [Compound A-174, N-{2-[4-(2,4-difluorophenyl)piperazin-1-yl]phenyl}-4-trifluoromethanesulfonylbenzene-1-sulfonamide] | 2010 to 8000 | 
COCC1(F)CCN(c2ccccc2NS(=O)(=O)c2ccc(S(=O)(=O)N(C)C)cc2)CC1 [Compound A-686, N4-[2-[4-fluoro-4-(methoxymethyl)piperidin-1-yl]phenyl}-N1,N1-dimethylbenzene-1,4-disulfonamide] | ≤ 2000 | 
CN(C)S(=O)(=O)c1ccc(S(=O)(=O)Nc2ccccc2N2CCC(c3ccccc3-c3nnn[nH]3)CC2)cc1 [Compound A-280, N1,N1-dimethyl-N4-(2-{4-[2-(1H-1,2,3,4-tetrazol-5-yl)phenyl]piperidin-1-yl}phenyl)benzene-1,4-disulfonamide] | ≥ 10000 | 
COC(F)(F)C(F)(F)c1ccc(S(=O)(=O)Nc2ccccc2N2CCN(C(=O)C(C)(C)C)CC2)cc1 [Compound A-569, N-{2-[4-(2,2-dimethylpropanoyl)piperazin-1-yl]phenyl}-4-(1,1,2,2-tetrafluoro-2-methoxyethyl)benzene-1-sulfonamide] | 8010 to 9990 | 
CC1(C)CC2(CCN(c3ccccc3NS(=O)(=O)c3ccc4c(c3)COC4(C)C)CC2)CO1 [Compound A-700, N-(2-{3,3-dimethyl-2-oxa-8-azaspiro[4.5]decan-8-yl}phenyl)-1,1-dimethyl-1,3-dihydro-2-benzofuran-5-sulfonamide] | 2010 to 8000 | 
CN(C)S(=O)(=O)c1ccc(S(=O)(=O)n2cnc(N3CCC(c4ccc(Cl)cc4F)CC3)n2)cc1 [Compound A-62, 4-((3-(4-(4-chloro-2-fluorophenyl)piperidin-1-yl)-1H-1,2,4-triazol-1-yl)sulfonyl)-N,N-dimethylbenzenesulfonamide] | 8010 to 9990 | 
CC(c1cccc(F)c1N1CCC(COC(C)(C)C)CC1)S(=O)(=O)c1ccc(C(F)F)cc1 (single isomer, unassigned) [Compound A-977, 4-(tert-butoxymethyl)-1-(2-(1-((4-(difluoromethyl)phenyl)sulfonyl)ethyl)-6-fluorophenyl)piperidine] |  | 2010 to 8000
CC(c1cccnc1N1CCC(CN2CCC(F)(F)CC2)CC1)S(=O)(=O)c1ccc(S(=O)(=O)N(C)C)cc1 (stereo not shown) [Compound A-987, 4-[1-(2-{4-[(4,4-difluoropiperidin-1-yl)methyl]piperidin-1-yl}pyridin-3-yl)ethanesulfonyl]-N,N-dimethylbenzene-1-sulfonamide] | ≤ 2000 | 
CC(c1cccc(F)c1N1CCCCC1)S(=O)(=O)c1ccc(S(=O)(=O)N(C)C)nn1 (stereo not shown) [Compound A-941, 6-{1-[3-fluoro-2-(piperidin-1-yl)phenyl]ethanesulfonyl}-N,N-dimethylpyridazine-3-sulfonamide] | 2010 to 8000 | 
Cc1ccc(F)c(CS(=O)(=O)Nc2ccccc2N2CCC3(CC2)COC(C)(C)C3)c1 [Compound A-679, N-(2-{3,3-dimethyl-2-oxa-8-azaspiro[4.5]decan-8-yl}phenyl)-1-(2-fluoro-5-methylphenyl)methanesulfonamide] | ≤ 2000 | 
CN(C)S(=O)(=O)c1ccc(S(=O)(=O)Nc2ccccc2N2CCC(C(F)F)CC2)cc1 [Compound A-585, N4-{2-[4-(difluoromethyl)piperidin-1-yl]phenyl}-N1,N1-dimethylbenzene-1,4-disulfonamide] | ≤ 2000 | 
